Measured values reported in patent US11427548B2 (Arvinas Operations, Inc., priority 2015, dated 2022).
Read-outs that look alike come from different tables or passages of the source.

Experiments:
[1] = target: T1, Androgen Receptor (Homo sapiens, UniProt P10275+P40337, T878A); experiment: Androgen Receptor ELISA assay (PathScan AR ELISA) in LNCaP cells: AR degradation, Dmax and DC50; type: cell-based; conditions: for DC50: concentration that caused 50% Androgen Receptor degradation
T1 construct: Compounds have been evaluated in this assay in LNCaP and/or VCaP cells utilizing similar protocols; endogenous in cells; host or cells: LNCaP cells
T1 sequence (P10275 whole entry T878A): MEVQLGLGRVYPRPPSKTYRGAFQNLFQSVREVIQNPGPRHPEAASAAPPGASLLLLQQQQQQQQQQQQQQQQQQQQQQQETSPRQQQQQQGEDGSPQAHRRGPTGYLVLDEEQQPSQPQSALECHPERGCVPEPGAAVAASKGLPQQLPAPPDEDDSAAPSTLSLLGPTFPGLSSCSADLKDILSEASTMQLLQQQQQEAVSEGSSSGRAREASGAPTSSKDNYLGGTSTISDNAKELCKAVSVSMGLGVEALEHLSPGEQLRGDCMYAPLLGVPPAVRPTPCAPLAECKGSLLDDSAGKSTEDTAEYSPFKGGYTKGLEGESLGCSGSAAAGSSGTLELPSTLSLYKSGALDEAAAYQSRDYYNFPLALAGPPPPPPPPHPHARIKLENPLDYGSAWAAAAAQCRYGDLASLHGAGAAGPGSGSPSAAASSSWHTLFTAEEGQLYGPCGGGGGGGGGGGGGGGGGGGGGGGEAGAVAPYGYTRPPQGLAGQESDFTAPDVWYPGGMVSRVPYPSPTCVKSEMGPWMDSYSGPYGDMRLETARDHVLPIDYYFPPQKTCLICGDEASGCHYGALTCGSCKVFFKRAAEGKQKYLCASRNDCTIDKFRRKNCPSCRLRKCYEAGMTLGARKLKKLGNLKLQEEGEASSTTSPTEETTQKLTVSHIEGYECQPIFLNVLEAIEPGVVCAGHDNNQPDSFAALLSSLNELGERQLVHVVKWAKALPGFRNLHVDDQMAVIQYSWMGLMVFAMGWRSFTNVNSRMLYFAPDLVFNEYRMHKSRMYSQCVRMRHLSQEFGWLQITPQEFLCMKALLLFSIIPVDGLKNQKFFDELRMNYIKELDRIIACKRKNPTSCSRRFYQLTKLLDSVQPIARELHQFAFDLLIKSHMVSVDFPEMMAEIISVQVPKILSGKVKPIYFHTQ
T1 sequence (P40337 whole entry): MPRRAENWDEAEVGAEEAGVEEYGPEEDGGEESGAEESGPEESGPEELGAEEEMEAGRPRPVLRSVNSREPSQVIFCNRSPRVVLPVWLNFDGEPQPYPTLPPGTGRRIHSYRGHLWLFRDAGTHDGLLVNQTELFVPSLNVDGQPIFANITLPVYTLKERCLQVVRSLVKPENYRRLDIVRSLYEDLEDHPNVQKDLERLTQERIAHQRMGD
T1 sequence (Q15369 whole entry partner): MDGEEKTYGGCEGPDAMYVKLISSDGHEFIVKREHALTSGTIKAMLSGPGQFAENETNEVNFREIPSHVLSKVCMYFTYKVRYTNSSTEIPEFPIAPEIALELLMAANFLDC
T1 sequence (Q15370 whole entry partner): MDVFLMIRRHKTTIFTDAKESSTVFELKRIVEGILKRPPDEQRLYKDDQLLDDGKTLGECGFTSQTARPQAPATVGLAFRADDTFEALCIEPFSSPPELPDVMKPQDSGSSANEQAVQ

[2] = target: T2, Androgen Receptor (Homo sapiens, UniProt P10275); experiment: Androgen Receptor ELISA assay (PathScan AR ELISA) in VCaP cells: AR degradation, Dmax and DC50; type: cell-based
T2 construct: endogenous in cells; host or cells: VCaP cells
T2 sequence (P10275 1-920): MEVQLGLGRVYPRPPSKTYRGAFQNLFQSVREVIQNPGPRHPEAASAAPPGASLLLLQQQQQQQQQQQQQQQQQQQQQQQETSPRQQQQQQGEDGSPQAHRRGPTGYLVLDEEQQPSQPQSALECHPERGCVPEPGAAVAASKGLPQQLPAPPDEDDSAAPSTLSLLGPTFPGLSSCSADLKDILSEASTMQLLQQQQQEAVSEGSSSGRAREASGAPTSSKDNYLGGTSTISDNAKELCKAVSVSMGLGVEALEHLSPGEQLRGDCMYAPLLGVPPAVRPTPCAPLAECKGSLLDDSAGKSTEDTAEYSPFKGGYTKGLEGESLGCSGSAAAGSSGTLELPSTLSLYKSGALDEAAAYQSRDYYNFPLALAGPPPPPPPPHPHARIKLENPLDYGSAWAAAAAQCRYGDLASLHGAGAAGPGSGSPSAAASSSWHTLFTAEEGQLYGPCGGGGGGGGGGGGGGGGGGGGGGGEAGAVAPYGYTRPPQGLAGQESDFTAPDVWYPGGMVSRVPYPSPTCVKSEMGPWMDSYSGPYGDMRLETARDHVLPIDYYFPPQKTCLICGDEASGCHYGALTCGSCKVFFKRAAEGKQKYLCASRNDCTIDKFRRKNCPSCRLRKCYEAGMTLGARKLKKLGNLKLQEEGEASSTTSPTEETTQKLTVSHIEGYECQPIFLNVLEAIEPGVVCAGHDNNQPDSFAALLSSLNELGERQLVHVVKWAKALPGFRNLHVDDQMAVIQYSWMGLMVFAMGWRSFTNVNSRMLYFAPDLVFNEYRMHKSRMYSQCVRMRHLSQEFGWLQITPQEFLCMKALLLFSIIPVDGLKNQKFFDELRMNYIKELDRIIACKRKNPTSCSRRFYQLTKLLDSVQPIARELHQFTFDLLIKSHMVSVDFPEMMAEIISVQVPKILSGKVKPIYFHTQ
How it was run: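 After 24 h exposure of VCaP cells (charcoal-stripped serum, 0.1 nM R1881 agonist, 0.1% DMSO) to seven half-log compound concentrations, residual AR in lysates was measured by PathScan ELISA (TMB absorbance, 450 nm). Cells were plated at 30,000/well and grown at least 3 days beforehand.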

[3] = highest percentage of Androgen Receptor degradation observed
[4] = read-out: VCaP DC50; concentration that caused 50% Androgen Receptor degradation, VCaP cells
[5] = highest percentage of Androgen Receptor degradation

Cc1ncsc1-c1ccc(CNC(=O)[C@@H]2C[C@@H](O)CN2C(=O)[C@@H](NC(=O)COCCCOCCCCCOc2ccc(N3C(=S)N(c4cnc(C#N)c(C(F)(F)F)c4)C(=O)C3(C)C)cc2)C(C)(C)C)cc1 [Example 2, (2S,4R)-1-((S)-2-(2-(3-(5-(4-(3-(6-cyano-5-(trifluoromethyl)pyridin-3-yl)-5,5-dimethyl-4-oxo-2-thioxoimidazolidin-1-yl)phenoxy)pentyloxy)propoxy)acetamido)-3,3-dimethylbutanoyl)-4-hydroxy-N-(4-(4-methylthiazol-5-yl)benzyl)pyrrolidine-2-carboxamide]
Dmax [1, 3]: > 71% | Dmax ([2]; VCaP, read-out: VCaP Dmax (%)): 51 to 70% | DC50 ([2]; concentration that caused 50% Androgen Receptor degradation, VCaP cells; read-out: VCaP DC50): < 50 nM

Cc1ncsc1-c1ccc([C@H](C)NC(=O)[C@@H]2C[C@@H](O)CN2C(=O)[C@@H](NC(=O)COCCCOCCCCCOc2ccc(N3C(=S)N(c4ccc(C#N)c(C(F)(F)F)c4)C(=O)C3(C)C)cc2)C(C)(C)C)cc1 [Example 4, (2S,4R)-1-[(2S)-2-[2-(3-{[5-(4-{3-[4-cyano-3-(trifluoromethyl)phenyl]-5,5-dimethyl-4-oxo-2-sulfanylideneimidazolidin-1-yl}phenoxy)pentyl]oxy}propoxy)acetamido]-3,3-dimethylbutanoyl]-4-hydroxy-N-[(1S)-1-[4-(4-methyl-1,3-thiazol-5-yl)phenyl]ethyl]pyrrolidine-2-carboxamide]
DC50 [1]: < 50 nM | Dmax [1, 3]: > 71% | Dmax ([2]; VCaP, read-out: VCaP Dmax (%)): 51 to 70% | DC50 [2, 4]: < 50 nM

Cc1ncsc1-c1ccc(CNC(=O)[C@@H]2C[C@@H](O)CN2C(=O)[C@@H](NC(=O)COCCCOCCCCCOc2ccc(N3C(=S)N(c4ccc(C#N)c(Cl)c4)C(=O)C3(C)C)cc2)C(C)(C)C)cc1 [Example 8]
DC50 [1]: < 50 nM | Dmax [1, 3]: > 71% | Dmax ([2]; VCaP, read-out: VCaP Dmax (%)): 51 to 70% | DC50 [2, 4]: < 50 nM

Cc1ncsc1-c1ccc([C@H](C)NC(=O)[C@@H]2C[C@@H](O)CN2C(=O)[C@@H](NC(=O)COCCCOCCCCCOc2ccc(N3C(=S)N(c4ccc(C#N)c(C(F)(F)F)c4)C(=O)C3(C)C)cc2F)C(C)(C)C)cc1 [Example 10, (2S,4R)-1-[(2S)-2-[2-(3-{[5-(4-{3-[4-cyano-3-(trifluoromethyl)phenyl]-5,5-dimethyl-4-oxo-2-sulfanylideneimidazolidin-1-yl}-2-fluorophenoxy)pentyl]oxy}propoxy)acetamido]-3,3-dimethylbutanoyl]-4-hydroxy-N-[(1S)-1-[4-(4-methyl-1,3-thiazol-5-yl)phenyl]ethyl]pyrrolidine-2-carboxamide]
DC50 [1]: < 50 nM | Dmax [1, 3]: > 71% | Dmax ([2]; VCaP, read-out: VCaP Dmax (%)): 51 to 70% | DC50 [2, 4]: < 50 nM

Cc1ncsc1-c1ccc([C@H](C)NC(=O)[C@@H]2C[C@@H](O)CN2C(=O)[C@@H](NC(=O)COCCCOCCCCCOc2c(F)cc(N3C(=S)N(c4ccc(C#N)c(C(F)(F)F)c4)C(=O)C3(C)C)cc2F)C(C)(C)C)cc1 [Example 11, (2S,4R)-1-[(2S)-2-[2-(3-{[5-(4-{3-[4-cyano-3-(trifluoromethyl)phenyl]-5,5-dimethyl-4-oxo-2-sulfanylideneimidazolidin-1-yl}-2,6-difluorophenoxy)pentyl]oxy}propoxy)acetamido]-3,3-dimethylbutanoyl]-4-hydroxy-N-[(1S)-1-[4-(4-methyl-1,3-thiazol-5-yl)phenyl]ethyl]pyrrolidine-2-carboxamide]
DC50 [1]: < 50 nM | Dmax [1, 3]: > 71% | Dmax ([2]; VCaP, read-out: VCaP Dmax (%)): 51 to 70% | DC50 [2, 4]: < 50 nM

Cc1ncsc1-c1ccc(CNC(=O)[C@@H]2C[C@@H](O)CN2C(=O)[C@@H](NC(=O)COCCCOCCC(C)(C)CCOc2ccc(N3C(=S)N(c4ccc(C#N)c(C(F)(F)F)c4)C(=O)C3(C)C)cc2)C(C)(C)C)cc1 [Example 12, (2S,4R)-1-[(2S)-2-[2-(3-{[5-(4-{3-[4-cyano-3-(trifluoromethyl)phenyl]-5,5-dimethyl-4-oxo-2-sulfanylideneimidazolidin-1-yl}phenoxy)-3,3-dimethylpentyl]oxy}propoxy)acetamido]-3,3-dimethylbutanoyl]-4-hydroxy-N-{[4-(4-methyl-1,3-thiazol-5-yl)phenyl]methyl}pyrrolidine-2-carboxamide]
DC50 [1]: 51 to 500 nM | Dmax [1, 3]: > 71% | Dmax ([2]; VCaP, read-out: VCaP Dmax (%)): 26 to 50% | DC50 [2, 4]: < 50 nM

Cc1ncsc1-c1ccc(CNC(=O)[C@@H]2C[C@@H](O)CN2C(=O)[C@H](C(C)C)N2Cc3ccccc3C2=O)c(OCCCCOCCCOc2ccc(N3C(=S)N(c4ccc(C#N)c(C(F)(F)F)c4)C(=O)C3(C)C)cc2)c1 [Example 279]
DC50 [1]: > 501 nM | Dmax [1, 5]: 51 to 70%

CC[C@H](NC(C)=O)C(=O)N1C[C@H](O)C[C@H]1C(=O)NCc1ccc(-c2scnc2C)cc1OCCOCCOCCOc1ccc(N2C(=S)N(c3ccc(C#N)c(C(F)(F)F)c3)C(=O)C2(C)C)cc1 [Example 280]
DC50 [1]: > 501 nM | Dmax [1, 5]: 26 to 50%

CC(=O)N[C@H](C(=O)N1C[C@H](O)C[C@H]1C(=O)NCc1ccc(-c2scnc2C)cc1OCCOCCOCCOc1ccc(N2C(=S)N(c3ccc(C#N)c(C(F)(F)F)c3)C(=O)C2(C)C)cc1)C(C)C [Example 281]
DC50 [1]: > 501 nM | Dmax [1, 5]: 51 to 70%

Cc1ncsc1-c1ccc(CNC(=O)[C@@H]2C[C@@H](O)CN2C(=O)[C@@H](NC(=O)c2ccccc2OCCOCCOc2ccc(N3C(=S)N(c4ccc(C#N)c(C(F)(F)F)c4)C(=O)C3(C)C)cc2)C(C)(C)C)cc1 [Example 282]
DC50 [1]: 51 to 500 nM | Dmax [1, 5]: 51 to 70%

Cc1ncsc1-c1ccc(CNC(=O)[C@@H]2C[C@@H](O)CN2C(=O)[C@@H](NC(=O)c2cccc(OCCOCCOc3ccc(N4C(=S)N(c5ccc(C#N)c(C(F)(F)F)c5)C(=O)C4(C)C)cc3)c2)C(C)(C)C)cc1 [Example 283]
DC50 [1]: 51 to 500 nM | Dmax [1, 5]: 51 to 70%

Cc1ncsc1-c1ccc(CNC(=O)[C@@H]2C[C@@H](O)CN2C(=O)[C@@H](NC(=O)c2ccc(OCCCOc3ccc(-c4ccc(N5C(=S)N(c6ccc(C#N)c(C(F)(F)F)c6)C(=O)C5(C)C)cc4)cc3)cc2)C(C)(C)C)cc1 [Example 284]
DC50 [1]: 51 to 500 nM | Dmax [1, 5]: 26 to 50%

Cc1ncsc1-c1ccc(CNC(=O)[C@@H]2C[C@@H](O)CN2C(=O)[C@@H](NC(=O)c2ccc(OCCCCOc3ccc(-c4ccc(N5C(=S)N(c6ccc(C#N)c(C(F)(F)F)c6)C(=O)C5(C)C)cc4)cc3)cc2)C(C)(C)C)cc1 [Example 285]
DC50 [1]: > 501 nM | Dmax [1, 5]: < 25%

Cc1ncsc1-c1ccc(CNC(=O)[C@@H]2C[C@@H](O)CN2C(=O)[C@@H](NC(=O)c2ccc(OCCOc3ccc(-c4ccc(N5C(=S)N(c6ccc(C#N)c(C(F)(F)F)c6)C(=O)C5(C)C)cc4)cc3)cc2)C(C)(C)C)cc1 [Example 286]
DC50 [1]: < 50 nM | Dmax [1, 5]: 51 to 70%

Cc1ncsc1-c1ccc(CNC(=O)[C@@H]2C[C@@H](O)CN2C(=O)[C@@H](NC(=O)c2ccc(C3CCN(CCCCOc4ccc(N5C(=S)N(c6ccc(C#N)c(C(F)(F)F)c6)C(=O)C5(C)C)cc4)CC3)cc2)C(C)(C)C)cc1 [Example 287]
DC50 [1]: > 501 nM | Dmax [1, 5]: 51 to 70%

Cc1ncsc1-c1ccc(CNC(=O)[C@@H]2C[C@@H](O)CN2C(=O)[C@@H](NC(=O)c2ccc(C3CCN(CCCOc4ccc(N5C(=S)N(c6ccc(C#N)c(C(F)(F)F)c6)C(=O)C5(C)C)cc4)CC3)cc2)C(C)(C)C)cc1 [Example 289]
DC50 [1]: > 501 nM | Dmax [1, 5]: 26 to 50%

Cc1ncsc1-c1ccc(CNC(=O)[C@@H]2C[C@@H](O)CN2C(=O)[C@@H](NC(=O)COCCCOC2CCN(C(=O)c3ccc(N4C(=S)N(c5ccc(C#N)c(C(F)(F)F)c5)C(=O)C4(C)C)cc3)CC2)C(C)(C)C)cc1 [Example 290]
DC50 [1]: > 501 nM | Dmax [1, 5]: 51 to 70%

Cc1ncsc1-c1ccc(CNC(=O)[C@@H]2C[C@@H](O)CN2C(=O)[C@@H](NC(=O)c2ccc(OCCOC3CCN(C(=O)c4ccc(N5C(=S)N(c6ccc(C#N)c(C(F)(F)F)c6)C(=O)C5(C)C)cc4)CC3)cc2)C(C)(C)C)cc1 [Example 291]
DC50 [1]: > 501 nM | Dmax [1, 5]: < 25%

Cc1ncsc1-c1ccc(CNC(=O)[C@@H]2C[C@@H](O)CN2C(=O)[C@H](C(C)C)N2Cc3ccccc3C2=O)c(OCCO[C@@H]2CCC[C@@H]2OCCOc2ccc(N3C(=S)N(c4ccc(C#N)c(C(F)(F)F)c4)C(=O)C3(C)C)cc2)c1 [Example 304]
DC50 [1]: 51 to 500 nM | Dmax [1, 5]: 26 to 50%

Cc1ncsc1-c1ccc(CNC(=O)[C@@H]2C[C@@H](O)CN2C(=O)[C@@H](NC(=O)CC(=O)CCCOCCCCCOc2ccc(N3C(=S)N(c4ccc(C#N)c(C(F)(F)F)c4)C(=O)C3(C)C)cc2)C(C)(C)C)cc1 [Example 305]
DC50 [1]: 51 to 500 nM | Dmax [1, 5]: 51 to 70%
